# How the values were obtained:
# [1] = system: cats; test: Study 2: behavior scores of paired unfamiliar cats, CON litter Day 1 then RP litter Day 2; format: in vivo; set-up: litter box weight, RP after / litter box weight, Change (RP): unit not given here; conditions: for Average aggression score by pair, Day 2 (RP): total possible 48
# Protocol: During the studies, cat behavior was captured on video for the duration of the 24- or 48-hour period depending on the specific study. Red lights were used at night to allow for continuous observation. A scan sampling method was used to record cat behaviors each 5 minutes. The recorded videos were subsequently reviewed and analyzed in each 5-minute scan sample, with tape playing 30 frames per second. At each 5-minute time point, each cat was categorized as anxious or relaxed. Aggression or litter box usage occurred between 5-minute periods were also noted. Because each scan sample is of 5-minute period, a total of 24 observations for each individual behavior are possible for each 2 hours. The instances of an individual behavior (An; n=1, 2, 3, . . . 24) in each 5-minute period were totaled for instances in each 2 hours (Bm=ΣAn, n=1, 2, 3, . . . 24; m=1, 2, 3, . . . 12) over 24 hours. The behavioral score for each 2-hour period is ΣAn/24 (n=1, 2, 3, . . . , 24). A behavioral score for a 24-hour period is ΣBm/12 (m=1, 2, 3, . . . 12). Among all behavior assessed, aggression, in-litter-box and anxiety were scored as yes or no during each 5 minutes (An=1 or 0; n=1, 2, 3, . . . 24). In addition, anxiety was measured as a percentage of the total time that the cat was experiencing anxiety. As such the anxiety related behavioral score for a 24-hour period is 0.347×ΣBm (%) (Bm=ΣAn(%), n=1, 2, 3, . . . 24; m=1, 2, 3, . . . 12), which reflects the percentage of time over 24 hours that the cats are experiencing anxiety. Moreover, when ranking cat pairs based on their level of aggression, the sum of the aggression scores of the individual cats in the pair was used to rank the cat pairs. Behavior data (behavioral scores) were further analyzed by Least Squares Analysis of variance using SAS (2011, SAS Inst., Inc., Cary, N.C.) software and the p-diff general linear model procedures to assess treatment differences within each time period. This statistical model included effects of treatment (TRT), cat-pair within treatment (TRT*CAT), time (HR), treatment by time (TRT*HR) and residual error (SE; used to test remaining effects). The previous study established that cats are attracted to litter treated with 2-methylbut-2-enal. In this study, 48 cats were used to determine the effect of litter treated with 2-methylbut-2-enal (RP) to the cat's various behaviors listed in Table 5. Litter was prepared in two batches, by mixing beads about 0.065″ in length both with and without 2-methylbut-2-enal. Blank beads were mixed thoroughly into one batch of litter so that the litter comprised about 3% (w/w) beads to form the control litter (CON). Similarly, beads containing a pheromone composition comprising 0.02% (w/w) 2-methylbut-2-enal (formed in accordance with Example 2 or 3) were mixed thoroughly into the other batch of litter so that the litter also comprised 3% (w/w) beads to form the treated litter (RP). Each batch of the litter was divided into 3 lb. aliquots that were ready to be tested. The 48 cats were randomly grouped into 24 same-sex pairs, which were divided into two groups with 12 pairs in each. The cats of each pair had either been housed individually or in groups of two previously, but had not been placed together prior to this study. As such, each cat was made sure to pair with an unfamiliar cat for the duration of the study. The first 12 pairs of two unfamiliar cats were tested over a 48-hour period. Subsequently, all chambers used were sanitized and aired out, and then the second group of 12 pair of cats was tested. Each pair of cats was placed in a kennel containing one food dish, one water dish, and one litter box. […]
# [2] = system: cats; test: Example 6: animal litter composition with molded particles for use with cats; format: in vivo; conditions: animal litter composition comprising about 0.0004% to about 0.0006% (w/w) 2-methylbut-2-enal; most evident in the first 6-8 hours
# Excerpt: An animal litter composition comprising a pheromone composition can be prepared by first forming molded particles from a shaped polymeric matrix prepared in accordance with Example 4 or 5, wherein the molded particles comprise a pheromone composition comprising 2-methylbut-2-enal. The molded particles can then be combined with, mixed into, or otherwise incorporated into litter material upon use of the litter. An animal litter composition of about 2 lbs. to about 6 lbs. will comprise between about 0.01% and about 15% (w/w) molded particles (the molded particles comprising about 0.02% (w/w) 2-methylbut-2-enal) in order to be effective in alleviating litter dominant behavior and associated aggression and anxiety in cats exposed to the pheromone composition as released from the litter. For example, an animal litter comprising about 2% to about 3% molded particles will result in the litter comprising between about 0.0004% (w/w) and about 0.0006% (w/w) 2-methylbut-2-enal. Accordingly, it will be observed that an animal litter composition comprising about 0.0004% to about 0.0006% (w/w) 2-methylbut-2-enal will elicit a positive behavior modification in cats, which behavior modification can last at least 24 hours, and is most evident in the first 6-8 hours following exposure of the animal to the animal litter composition.
smiles,measurement,setting,value
"C/C=C(\C)C=O [RP, 2-methylbut-2-enal]",reduction of anxiety of the cats in pairs,[1]; Day 1 untreated litter (21%) to Day 2 treated litter (12%),~50%
same,Average behavior score: Head in food/H2O dish,"[1]; Day 2, RP litter (3% (w/w) beads with 0.02% (w/w) 2-methylbut-2-enal), 24 cat pairs, Day 1 Con 0.90",1.05
same,Average behavior score: Grooming other,"[1]; Day 2, RP litter, 24 cat pairs, Day 1 Con 0.03",0.01
same,Average behavior score: In litter box - using,"[1]; Day 2, RP litter, 24 cat pairs, Day 1 Con 0.07",0.27
same,Average behavior score: Neutral social interaction,"[1]; Day 2, RP litter, 24 cat pairs, Day 1 Con 0.48",0.33
same,Average behavior score: Play,"[1]; Day 2, RP litter, 24 cat pairs, Day 1 Con 0.65",0.52
same,Average behavior score: Grooming self,"[1]; Day 2, RP litter, 24 cat pairs, Day 1 Con 0.70",0.77
same,Average behavior score: Lying/sitting - touching,"[1]; Day 2, RP litter, 24 cat pairs, Day 1 Con 0.89",0.98
same,Average behavior score: Sleeping,"[1]; Day 2, RP litter, 24 cat pairs, Day 1 Con 1.98",2.71
same,Average behavior score: In litter box - not using,"[1]; Day 2, RP litter, 24 cat pairs, Day 1 Con 2.10",2.73
same,Average behavior score: Aggression,"[1]; Day 2, RP litter, 24 cat pairs, Day 1 Con 3.00",1.95
same,Average behavior score: Locomotion,"[1]; Day 2, RP litter, 24 cat pairs, Day 1 Con 3.19",4.66
same,Average behavior score: Lying/sitting - not touching,"[1]; Day 2, RP litter, 24 cat pairs, Day 1 Con 17.0",15.4
same,Average behavior score: Anxiety (%),"[1]; Day 2, RP litter, 24 cat pairs, percentage of time over 24 hours, Day 1 Con 21.0",12.0%
same,"Average aggression score by pair, Day 2 (RP)","[1]; Pair 1 (M, M), rank 6, Day 1 (con) 2.92",0.13
same,"Average aggression score by pair, Day 2 (RP)","[1]; Pair 2 (M, M), rank 24, Day 1 (con) 0.00",0.00
same,"Average aggression score by pair, Day 2 (RP)","[1]; Pair 3 (M, M), rank 4, Day 1 (con) 6.33",3.42
same,"Average aggression score by pair, Day 2 (RP)","[1]; Pair 4 (M, M), rank 3, Day 1 (con) 6.50",0.08
same,"Average aggression score by pair, Day 2 (RP)","[1]; Pair 5 (M, M), rank 5, Day 1 (con) 3.58",4.67
same,"Average aggression score by pair, Day 2 (RP)","[1]; Pair 6 (M, M), rank 13, Day 1 (con) 1.08",0.13
same,"Average aggression score by pair, Day 2 (RP)","[1]; Pair 7 (F, F), rank 20, Day 1 (con) 0.04",0.33
same,"Average aggression score by pair, Day 2 (RP)","[1]; Pair 8 (F, F), rank 14, Day 1 (con) 0.50",0.88
same,"Average aggression score by pair, Day 2 (RP)","[1]; Pair 9 (F, F), rank 19, Day 1 (con) 0.08",0.08
same,"Average aggression score by pair, Day 2 (RP)","[1]; Pair 10 (F, F), rank 2, Day 1 (con) 10.13",3.25
same,"Average aggression score by pair, Day 2 (RP)","[1]; Pair 11 (F, F), rank 12, Day 1 (con) 1.63",1.50
same,"Average aggression score by pair, Day 2 (RP)","[1]; Pair 12 (F, F), rank 23, Day 1 (con) 0.00",0.00
same,"Average aggression score by pair, Day 2 (RP)","[1]; Pair 13 (M, M), rank 1, Day 1 (con) 27.00",18.25
same,"Average aggression score by pair, Day 2 (RP)","[1]; Pair 14 (M, M), rank 8, Day 1 (con) 2.54",2.58
same,"Average aggression score by pair, Day 2 (RP)","[1]; Pair 15 (M, M), rank 7, Day 1 (con) 2.54",3.83
same,"Average aggression score by pair, Day 2 (RP)","[1]; Pair 16 (C, M), rank 11, Day 1 (con) 1.63",0.71
same,"Average aggression score by pair, Day 2 (RP)","[1]; Pair 17 (M, M), rank 9, Day 1 (con) 2.46",2.13
same,"Average aggression score by pair, Day 2 (RP)","[1]; Pair 18 (M, M), rank 10, Day 1 (con) 2.38",1.88
same,"Average aggression score by pair, Day 2 (RP)","[1]; Pair 19 (M, M), rank 15, Day 1 (con) 0.33",0.00
same,"Average aggression score by pair, Day 2 (RP)","[1]; Pair 20 (F, F), rank 22, Day 1 (con) 0.00",0.21
same,"Average aggression score by pair, Day 2 (RP)","[1]; Pair 21 (F, F), rank 18, Day 1 (con) 0.08",0.92
same,"Average aggression score by pair, Day 2 (RP)","[1]; Pair 22 (F, F), rank 16, Day 1 (con) 0.17",0.13
same,"Average aggression score by pair, Day 2 (RP)","[1]; Pair 23 (F, F), rank 17, Day 1 (con) 0.08",1.00
same,"Average aggression score by pair, Day 2 (RP)","[1]; Pair 24 (F, F), rank 21, Day 1 (con) 0.00",0.63
same,"litter box weight, Change (RP)","[1]; RP after minus RP before, CON change 0.02",0.11
same,"Changes in litter box weights, % difference",[1]; RP change versus CON change,438%
same,"litter box weight, RP after","[1]; after 24 hours of use, RP before 2.1",2.21
same,reduction of aggression from Day 1 to Day 2,[1]; aggression score 3.0 to 1.95 after exposure to RP litter,68.3%
same,increase of litter box use,[1]; score 0.07 (Day 1 CON) to 0.27 (Day 2 RP),386%
same,duration of positive behavior modification in cats,[2],at least 24 hours

# Source: patent US10806121B2, “Animal litter containing a pheromone composition” (Sergeant's Pet Care Products, LLC, priority 2014, dated 2020)
